Like-named read-outs stand apart in the source and are kept apart here.
Legend:
[1] = tested on: NHBE cells; experiment: cells; assay type: cell-based, human
[2] = tested on: CA09; experiment: microbe, parasite or virus in culture; assay type: cell-based, influenza virus H1N1 strain A/CA/04/2009; conditions: for log reduction at 10 pM / log reduction at 0.0001 µM / log reduction at 0.001 µM / log reduction at 0.01 µM / log reduction at 0.1 µM / log reduction at 1 µM / log reduction at 10 µM / log reduction at 100 µM: NHBE, read-out: TCID50 (per mL); for Viral Titer Therapeutic: follow up validation titer, therapeutic treatment
[3] = tested on: NHBE cells; experiment: Biolog metabolic array: substrate use by NHBE cells with or without CA09 infection; assay type: cell-based, human; conditions: for Substrate use, 590 nm absorbance normalized to zero hour, 1 hr: Biolog PMM2, 1 hr; for Substrate use, 590 nm absorbance normalized to zero hour, 5 hr: Biolog PMM2, 5 hr; for Substrate use, 590 nm absorbance normalized to zero hour, 7 hr: Biolog PMM2, 7 hr
[4] = Control (uninfected) NHBE cells
[5] = Virus (CA09-infected, MOI 1) NHBE cells
[6] = Virus: CA09-infected NHBE cells, MOI 1, Biolog PMM2
[7] = Virus (CA09-infected NHBE cells, MOI 1)

NOCC(=O)O
IC50 ([1]; read-out: IC50, Prophylactic Treatment, Control): 5 µM | IC50 ([1]; read-out: IC50, Prophylactic Treatment, Viral Infected): 10 µM

O=C(O)c1nn(Cc2ccc(Cl)cc2Cl)c2ccccc12 [Lonidamine]
log reduction at 10 pM [2]: 0.94 | log reduction at 0.0001 µM [2]: 0.54 | log reduction at 0.001 µM [2]: 0.54 | log reduction at 0.01 µM [2]: 0.67 | log reduction at 0.1 µM [2]: 0.24 | log reduction at 1 µM [2]: 0.24 | log reduction at 10 µM [2]: 0.18 | log reduction at 100 µM [2]: 0.65

CC(C)n1c(/C=C/C(O)CC(O)CC(=O)O)c(-c2ccc(F)cc2)c2ccccc21 (centres unmarked) [Fluvastatin]
log reduction at 10 pM ([2]; Therapeutic Drug Treatment, Drug Dose 10 pM, […]): 0.16 | log reduction at 0.0001 µM ([2]; Therapeutic Drug Treatment, Drug Dose 100 pM, […]): 0.5 | log reduction at 0.001 µM ([2]; Therapeutic Drug Treatment, Drug Dose 1 nM, […]): 0.18 | log reduction at 0.01 µM ([2]; Therapeutic Drug Treatment, Drug Dose 10 nM, […]): 0.34 | log reduction at 0.1 µM ([2]; Therapeutic Drug Treatment, Drug Dose 100 nM, […]): 0.15 | log reduction at 1 µM ([2]; Therapeutic Drug Treatment, Drug Dose 1 μM, […]): 0.51 | log reduction at 10 µM ([2]; Therapeutic Drug Treatment, Drug Dose 10 μM, […]): 0.75 | log reduction at 100 µM ([2]; Therapeutic Drug Treatment, Drug Dose 100 μM, […]): -0.33

COc1ccc(Cc2nnc(NS(=O)(=O)c3ccccc3)s2)cc1 [OU749]
log reduction at 10 pM [2]: 0 | log reduction at 0.0001 µM [2]: 0.65 | log reduction at 0.01 µM [2]: 0.35 | log reduction at 10 µM [2]: 0.46 | Viral Titer Therapeutic [2]: Reduced

O=C(CO)[C@@H](O)[C@@H](O)[C@H](O)[C@H](O)CO [D-mannoheptulose]
log reduction at 10 pM [2]: 0 | log reduction at 0.0001 µM [2]: 0.76 | log reduction at 0.001 µM [2]: 0.56 | log reduction at 0.01 µM [2]: 0 | log reduction at 0.1 µM [2]: 0.25 | log reduction at 1 µM [2]: 0.88 | log reduction at 10 µM [2]: 0.4 | log reduction at 100 µM [2]: -0.03

CC(C)c1nc(N(C)S(C)(=O)=O)nc(-c2ccc(F)cc2)c1/C=C/[C@@H](O)C[C@@H](O)CC(=O)O [Rosuvastatin]
log reduction at 10 pM [2]: 0 | log reduction at 0.0001 µM [2]: 0.15 | log reduction at 0.001 µM [2]: 0.76 | log reduction at 0.01 µM [2]: 0.66 | log reduction at 0.1 µM [2]: 0.41 | log reduction at 1 µM [2]: 1 | log reduction at 10 µM [2]: 0.79 | log reduction at 100 µM [2]: 0.64 | Viral Titer Therapeutic [2]: Reduced

Cc1cn([C@H]2C[C@H](O)[C@@H](CO)O2)c(=O)[nH]c1=O [Thymidine]
590 nm absorbance normalized to zero hour (substrate use), 1 hr [3, 4]: 1.65 | 590 nm absorbance normalized to zero hour (substrate use), 2 hr [3, 4]: 1.61 | 590 nm absorbance normalized to zero hour (substrate use), 3 hr [3, 4]: 1.67 | 590 nm absorbance normalized to zero hour (substrate use), 4 hr [3, 4]: 1.64 | 590 nm absorbance normalized to zero hour (substrate use), 6 hr [3, 4]: 0.92 | 590 nm absorbance normalized to zero hour (substrate use), 8 hr [3, 4]: 0.62 | 590 nm absorbance normalized to zero hour (substrate use), 9 hr [3, 4]: 1.52 | 590 nm absorbance normalized to zero hour (substrate use), 10 hr [3, 4]: 1.43 | 590 nm absorbance normalized to zero hour (substrate use), 11 hr [3, 4]: 0.81 | Substrate use, 590 nm absorbance normalized to zero hour, 1 hr [3, 4]: 1.65 | Substrate use, 590 nm absorbance normalized to zero hour, 5 hr [3, 4]: 1.75 | Substrate use, 590 nm absorbance normalized to zero hour, 7 hr [3, 4]: 0.61 | 590 nm absorbance normalized to zero hour (substrate use), 1 hr [3, 5]: 1.52 | 590 nm absorbance normalized to zero hour (substrate use), 2 hr [3, 5]: 2.29 | 590 nm absorbance normalized to zero hour (substrate use), 3 hr [3, 5]: 2.27 | 590 nm absorbance normalized to zero hour (substrate use), 4 hr [3, 5]: 2.32 | 590 nm absorbance normalized to zero hour (substrate use), 5 hr [3, 5]: 2.34 | 590 nm absorbance normalized to zero hour (substrate use), 6 hr [3, 5]: 2.33 | 590 nm absorbance normalized to zero hour (substrate use), 7 hr [3, 5]: 2.34 | 590 nm absorbance normalized to zero hour (substrate use), 8 hr [3, 5]: 2.26 | 590 nm absorbance normalized to zero hour (substrate use), 9 hr [3, 5]: 2.28 | 590 nm absorbance normalized to zero hour (substrate use), 10 hr [3, 5]: 0.94 | 590 nm absorbance normalized to zero hour (substrate use), 11 hr [3, 5]: 2.21 | 590 nm absorbance normalized to zero hour (substrate use), 1 hr [3, 6]: 1.52 | 590 nm absorbance normalized to zero hour (substrate use), 2 hr [3, 6]: 2.29 | 590 nm absorbance normalized to zero hour (substrate use), 3 hr [3, 6]: 2.27 | 590 nm absorbance normalized to zero hour (substrate use), 4 hr [3, 6]: 2.32 | 590 nm absorbance normalized to zero hour (substrate use), 5 hr [3, 6]: 2.34 | 590 nm absorbance normalized to zero hour (substrate use), 6 hr [3, 6]: 2.33 | 590 nm absorbance normalized to zero hour (substrate use), 7 hr [3, 6]: 2.34 | 590 nm absorbance normalized to zero hour (substrate use), 8 hr [3, 6]: 2.26 | 590 nm absorbance normalized to zero hour (substrate use), 9 hr [3, 6]: 2.28 | 590 nm absorbance normalized to zero hour (substrate use), 10 hr [3, 6]: 0.94 | 590 nm absorbance normalized to zero hour (substrate use), 11 hr [3, 6]: 2.21

Chondroitin Sulfate C
590 nm absorbance normalized to zero hour (substrate use), 0 hr [3, 4]: 1.00 | 590 nm absorbance normalized to zero hour (substrate use), 1 hr [3, 4]: 1.60 | 590 nm absorbance normalized to zero hour (substrate use), 2 hr [3, 4]: 1.94 | 590 nm absorbance normalized to zero hour (substrate use), 3 hr [3, 4]: 2.10 | 590 nm absorbance normalized to zero hour (substrate use), 4 hr [3, 4]: 2.19 | 590 nm absorbance normalized to zero hour (substrate use), 6 hr [3, 4]: 3.28 | 590 nm absorbance normalized to zero hour (substrate use), 8 hr [3, 4]: 2.56 | 590 nm absorbance normalized to zero hour (substrate use), 9 hr [3, 4]: 2.92 | 590 nm absorbance normalized to zero hour (substrate use), 10 hr [3, 4]: 3.00 | 590 nm absorbance normalized to zero hour (substrate use), 11 hr [3, 4]: 2.49 | Substrate use, 590 nm absorbance normalized to zero hour, 0 hr ([3]; Control (uninfected) NHBE cells, Biolog PMM2, 0 hr): 1.00 | Substrate use, 590 nm absorbance normalized to zero hour, 1 hr [3, 4]: 1.60 | Substrate use, 590 nm absorbance normalized to zero hour, 5 hr [3, 4]: 2.50 | Substrate use, 590 nm absorbance normalized to zero hour, 7 hr [3, 4]: 2.63 | 590 nm absorbance normalized to zero hour (substrate use), 0 hr [3, 7]: 1.00 | 590 nm absorbance normalized to zero hour (substrate use), 1 hr [3, 7]: 1.22 | 590 nm absorbance normalized to zero hour (substrate use), 2 hr [3, 7]: 1.41 | 590 nm absorbance normalized to zero hour (substrate use), 3 hr [3, 7]: 1.45 | 590 nm absorbance normalized to zero hour (substrate use), 5 hr [3, 7]: 1.62 | 590 nm absorbance normalized to zero hour (substrate use), 6 hr [3, 7]: 1.61 | 590 nm absorbance normalized to zero hour (substrate use), 7 hr [3, 7]: 1.63 | 590 nm absorbance normalized to zero hour (substrate use), 8 hr [3, 7]: 1.65 | 590 nm absorbance normalized to zero hour (substrate use), 9 hr [3, 7]: 1.72 | 590 nm absorbance normalized to zero hour (substrate use), 10 hr [3, 7]: 1.69 | 590 nm absorbance normalized to zero hour (substrate use), 11 hr [3, 7]: 1.75 | 590 nm absorbance normalized to zero hour (substrate use), 0 hr [3, 6]: 1.00 | 590 nm absorbance normalized to zero hour (substrate use), 1 hr [3, 6]: 1.22 | 590 nm absorbance normalized to zero hour (substrate use), 2 hr [3, 6]: 1.41 | 590 nm absorbance normalized to zero hour (substrate use), 3 hr [3, 6]: 1.45 | 590 nm absorbance normalized to zero hour (substrate use), 5 hr [3, 6]: 1.62 | 590 nm absorbance normalized to zero hour (substrate use), 6 hr [3, 6]: 1.61 | 590 nm absorbance normalized to zero hour (substrate use), 7 hr [3, 6]: 1.63 | 590 nm absorbance normalized to zero hour (substrate use), 8 hr [3, 6]: 1.65 | 590 nm absorbance normalized to zero hour (substrate use), 9 hr [3, 6]: 1.72 | 590 nm absorbance normalized to zero hour (substrate use), 10 hr [3, 6]: 1.69 | 590 nm absorbance normalized to zero hour (substrate use), 11 hr [3, 6]: 1.75

— patent US11083725B2 (priority 2014, dated 2021)
